According to patent US9274101B2 (BIOLOG, Inc., priority 2001, dated 2016):
Entries after “also recorded” stand apart in the source; their conditions may differ. Where a SMILES comes first, the peptide text is derived from it.

Test system: ten strains of E. coli
Type: cell-based, Escherichia coli

Molecule	carbon source utilization	carbon source utilization (text)
OC[C@H]1O[C@@H](O[C@@H]2[C@@H](CO)OC(O)(CO)[C@H]2O)[C@H](O)[C@@H](O)[C@H]1O (mixture of isomers) [Lactulose]	+ and −	
O=C(O)CC(O)C(=O)O (racemic) [D,L-malic acid]	+	
CC(O)CO (centres unmarked) [1,2-propanediol]	−	
CC(=O)O [Acetic acid]	+	
OC[C@@H](O)[C@@H](O)[C@@H](O)CO [Adonitol]	−	
O=C(O)CC(Br)C(=O)O (centres unmarked) [Bromo succinic acid]	+	
O=C[C@H](O)[C@@H](O)[C@H](O[C@@H]1O[C@H](CO)[C@@H](O)[C@H](O)[C@H]1O)[C@H](O)CO [Cellobiose]	−	
O=C(CO)[C@@H](O)[C@H](O)[C@H](O)CO [D-fructose]	+	
O=C[C@H](O)[C@@H](O)[C@@H](O)[C@H](O)CO [D-galactose]	+	
O=C(O)[C@H](O)[C@@H](O)[C@H](O)[C@H](O)CO [D-gluconic acid]	+	
N[C@@H](C(=O)O)[C@@H](O)[C@H](O)[C@H](O)CO [D-glucosaminic acid]	−	
O=C[C@H](O)[C@@H](O)[C@H](O)[C@H](O)C(=O)O [D-glucuronic acid]	+	
O=C(O)C[C@@H](O)C(=O)O [D-malic acid]	+	
OC[C@@H](O)[C@@H](O)[C@H](O)[C@H](O)CO [D-mannitol]	+	
OC[C@H]1O[C@H](OCC2O[C@@H](O)[C@H](O)[C@@H](O)[C@@H]2O)[C@H](O)[C@@H](O)[C@H]1O (stereo partly drawn) [D-melibiose]	+	
O=C[C@H](O)[C@H](O)[C@H](O)CO [D-ribose]	+	
O=C(O)[C@@H](O)[C@@H](O)[C@H](O)[C@@H](O)C(=O)O [D-saccharic acid]	− and +	negative
OC[C@@H](O)[C@@H](O)[C@H](O)[C@@H](O)CO [D-sorbitol]	− and +	sorbitol negative
C[C@H](O)[C@@H](N)C(=O)O [D-threonine]	−	
OC[C@H]1O[C@H](O[C@H]2O[C@H](CO)[C@@H](O)[C@H](O)[C@H]2O)[C@H](O)[C@@H](O)[C@@H]1O [D-trehalose]	+	
O=C[C@H](O)[C@@H](O)[C@H](O)CO [D-xylose]	+ and −	xylose-positive; also recorded: xylose-negative
OC[C@@H](O)[C@H](O)[C@H](O)[C@@H](O)CO [Dulcitol]	− and +	
O=CO [Formic acid]	− and +	
O=C(O)/C=C/C(=O)O [Fumaric acid]	+	
OCC(O)CO [Glycerol]	+ and −	

Molecule	carbon source utilization	carbon source utilization (text)
O=C(O)CO [Glycolic acid]	− and +	negative
NCC(=O)N[C@@H](CC(=O)O)C(=O)O [Glycyl-L-aspartic acid] (H-Gly-Asp-OH)	+	
NCC(=O)N1CCC[C@H]1C(=O)O [Glycyl-L-proline] (H-Gly-Pro-OH)	+	
O=CC(=O)O [Glyoxylic acid]	− and +	
O=C[C@H](O)[C@@H](O)[C@@H](O)CO [L-arabinose]	+	
C[C@H](O)[C@@H](O)[C@@H](O)[C@H](O)C=O [L-fucose]	+	
C[C@H](O)C(=O)O [L-lactic acid]	+	
O=C[C@H](O)[C@H](O)[C@@H](O)CO [L-lyxose]	− and +	
O=C(O)C[C@H](O)C(=O)O [L-malic acid]	+	
C[C@H](O)[C@H](O)[C@@H](O)[C@@H](O)C=O [L-rhamnose]	+	
O=C(O)Cc1cccc(O)c1 [M-hydroxyphenylacetic acid]	−	
OC[C@H]1O[C@H](O[C@H]2[C@H](O)[C@@H](O)[C@H](O)O[C@@H]2CO)[C@H](O)[C@@H](O)[C@@H]1O [Maltose]	+ and −	negative
O=C(O)[C@@H](O)[C@H](O)[C@H](O)[C@@H](O)C(=O)O [Mucic acid]	+	
O=C(O)Cc1ccc(O)cc1 [P-hydroxy phenylacetic acid]	−	
CCC(=O)O [Propionic acid]	+ and −	negative
O=C(O)CCC(=O)O [Succinic acid]	+	
O=C(O)CC(CC(=O)O)C(=O)O [Tricarballylic acid]	−	
CCC(O)C(=O)O (stereo not drawn) [α-hydroxy butyric acid]	+ and −	negative
CCC(=O)C(=O)O [α-ketobutyric acid]	− and +	negative
O=C(O)CCC(=O)C(=O)O [α-ketoglutaric acid]	+ and −	
CO[C@H]1O[C@H](CO)[C@H](O)[C@H](O)[C@H]1O [α-methyl galactoside]	+	
COC1OC(CO)C(O)C(O)C1O (stereo not drawn) [β-methyl glucoside]	+	
Maltotriose	+ and −	negative
Tween-20	−	
Tween-80	− and +	
